Test results from article PMC7767053, “Functional Analysis of Odorant-Binding Proteins 12 and 17 from Wheat Blossom Midge Sitodiplosis mosellana Géhin (Diptera: Cecidomyiidae)” (Insects, 2020).
Entries after “also recorded” stand apart in the source; their conditions may differ. Read-outs that look alike come from different tables or passages of the source.

Legend:
[1] = molecular target: SmosOBP12 (Sitodiplosis mosellana, UniProt A0A346RTY7); experiment: Fluorescence competitive binding assay with 1-NPN probe, recombinant SmosOBP12; conditions: for Ki: calculated from IC50, Ki = [IC50]/(1 + [1-NPN]/K1-NPN); for binding to SmosOBP12 (in words): fluorescence competitive binding
SmosOBP12, sequence (A0A346RTY7 entry or part of it): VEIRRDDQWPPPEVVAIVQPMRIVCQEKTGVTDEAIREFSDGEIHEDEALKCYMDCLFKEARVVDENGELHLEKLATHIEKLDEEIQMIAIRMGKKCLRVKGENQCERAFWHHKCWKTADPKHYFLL
Protocol: (§1) To determine binding affinities of SmosOBP12 and SmosOBP17 to host plant volatile compounds, fluorescence competitive binding assays were conducted using 1-N-phenyl-naphthylamine (1-NPN) as the fluorescent probe. Twenty-eight volatile compounds from winter wheat (Table 2) were selected based on our previous research. Both the probe and candidate ligands were dissolved in chromatographic-grade methanol to obtain 1 mM stock solutions, whereas recombinant SmosOBPs were diluted in 20 mM Tris-HCl (pH 7.4) to 2 μM. Fluorescence intensity was detected on an F-4600 fluorescence spectrophotometer (Hitachi, Tokyo, Japan) with a 1 cm light path quartz cuvette. Slits of both excitation and emissions were 10 nm in width. The probe was excited at 337 nm, and emission spectra were recorded between 370 and 550 nm.
(§2) Affinities of SmosOBPs to tested volatile ligands were measured by competition assays: to the 1 mL solution containing 2 μM recombinant protein and 2 μM 1-NPN, 1 mM solution of each putative volatile ligand (in a 2 µL aliquot) was added to final concentrations of 2–14 μM for SmosOBP12 and 2–40 μM for SmosOBP17, respectively. Maximal fluorescence intensities were plotted against ligand concentrations. Data were obtained from three independent measurements.
(§3) The Kd value was calculated using GraphPad Prism 5 (GraphPad Software Inc., La Jolla, CA, USA) via nonlinear regression for a unique site of binding. The inhibition constant (Ki) of each ligand competitor was calculated from the corresponding IC50 value (the concentration of competitor displacing 50% of initial fluorescence intensity) according to the equation: Ki = [IC50]/(1 + [1-NPN]/K1-NPN), where [1-NPN] is the free concentration of 1-NPN, and K1-NPN is the dissociation constant of the SmosOBPs/1-NPN complex.

[2] = molecular target: SmosOBP17 (Sitodiplosis mosellana, UniProt A0A346RTY9); experiment: Fluorescence competitive binding assay with 1-NPN probe, recombinant SmosOBP17; conditions: for Ki: calculated from IC50, Ki = [IC50]/(1 + [1-NPN]/K1-NPN); for binding to SmosOBP17 (in words): fluorescence competitive binding
SmosOBP17, sequence (A0A346RTY9 entry or part of it): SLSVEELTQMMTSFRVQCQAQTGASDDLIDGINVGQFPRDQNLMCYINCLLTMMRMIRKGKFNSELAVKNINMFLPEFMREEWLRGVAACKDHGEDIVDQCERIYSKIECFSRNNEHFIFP
Protocol: as §1, §2, §3

[3] = test system: female antennae of S. mosellana; parameters: method as in Cheng et al., 2020; conditions: ref Cheng et al., 2020; cited from earlier work
[4] = test system: S. mosellana females; experiment: Y-tube olfactometer bioassay; format: in vivo, Sitodiplosis mosellana; conditions: 10 μL of 20 μg/μL in paraffin oil vs paraffin oil control; 60 females
Protocol: Behavioral responses of S. mosellana females to the 28 volatile ligands were measured in a glass Y-tube olfactometer. The base and two arms of the Y-tube are 15 cm in length and 25 mm in internal diameter. The angle between arms is 60°. A 10 μL aliquot of the test chemical in paraffin oil at a concentration of 20 μg/μL [45] was applied to a filter paper strip (20 × 20 mm), which was allowed to evaporate for 20 s and then placed into one of the two odor bottles. The other odor bottle contained a filter paper strip treated with 10 μL of paraffin oil as the control. Moist, activated-charcoal filtered air entered both odor bottles connected by Teflon tubing to their respective arms of the Y-tube. The airflow rate through the olfactometer was 100 mL/min, which was measured by a float rotor meter. A newly emerged female S. mosellana adult was introduced into the end of the base of the Y-tube, which was then immediately covered with a dark paper box. An office lamp (20 W) illuminated the joint of two arms to facilitate observation. The choice was made if the S. mosellana female walked or flew 5 cm past the Y junction within 5 min and remained there for at least 15 s. Otherwise, it would be recorded as no-choice. Odor source was renewed for every five individuals. After testing for 10 individuals, the Y-tube was thoroughly cleaned with 95% ethanol and dried, and the treatment and control arms were switched to avoid the directional bias. After one odor source was tested, the Y-tube, odor bottles, and Teflon tubing were cleaned and dried before reuse. All experiments were conducted in a laboratory with a temperature of 25 ± 1 °C from 5:00 to 9:00 p.m. Sixty female adults were tested in each treatment group, and each individual was used only once. The choice response of insects in each treatment group was analyzed by the chi-square test using SPSS 20.0 software (Chicago, IL, USA). Non-selecting insects were recorded but not included in the statistical analysis.

[5] = test system: SmosOBP11; parameters: method as in PMID 31017726; conditions: cited from earlier work
[6] = test system: SmosOBP16; parameters: method as in PMID 31017726; conditions: cited from earlier work
[7] = test system: SmosOBP21; parameters: method as in PMID 31017726; conditions: cited from earlier work
[8] = displacement of 1-NPN, 2 μM protein, 2 μM 1-NPN, ligand 2–14 μM, three independent measurements, read-out: SmosOBP12 IC50
[9] = displacement of 1-NPN, 2 μM protein, 2 μM 1-NPN, ligand 2–40 μM, three independent measurements, read-out: SmosOBP17 IC50

Structure (SMILES) | Ki ([1]; read-out: SmosOBP12 Ki) [µM] | IC50 [1, 8] [µM] | IC50 [2, 9] [µM] | Ki [2] [µM] | binding to SmosOBP17 (in words) [2] | behavioral response of S. mosellana female adults [4] | further results
c1ccc(Nc2cccc3ccccc23)cc1 [1-NPN, 1-N-phenyl-naphthylamine, reference compound] | – | – | – | – | – | – | Kd ([1]; 2 µM protein titrated with 1-NPN 0–24 µM, read-out: dissociation constant (Kd) of SmosOBP12 with 1-NPN): 4.26 µM; Kd ([2]; 2 µM protein titrated with 1-NPN 0–24 µM, read-out: dissociation constant (Kd) of SmosOBP17 with 1-NPN): 3.02 µM
C=CC(O)CCCCC (stereo not drawn) [1-Octen-3-ol] | 5.29 ± 0.11 | 6.55 ± 0.12 | > 40 | – | – | intensive response; also recorded: significant attraction; also recorded: significantly attracted | electrophysiological response on female antennae [3]: strong electrophysiological responses
CCCCC(CC)CO (stereo not drawn) [2-Ethyl hexanol] | 6.36 ± 0.25 | 7.86 ± 0.31 | > 40 | > 30 | did not bind | – | –
CCCCC(C)=O [2-Hexanone] | – | – | – | – | – | – | IC50 [1]: 12.66 ± 0.08 µM; Ki ([1]; SmosOBP12 Ki): 10.25 ± 0.06 µM; IC50 [2]: > 40 µM
CCCCCCCCCCCC(C)=O [2-Tridecanone] | > 11.3 | > 14 | > 40 | > 30 | did not show any affinity | – | binding to SmosOBP12 (in words) [1]: did not show any affinity
CC1=CCC2C(C1)C2(C)C (stereo not drawn) [3-Carene] | 3.84 ± 0.12 | 4.76 ± 0.15 | > 40 | – | – | intensive response; also recorded: significant attraction | –
CCCC(O)CC (stereo not drawn) [3-Hexanol] | 3.33 ± 0.05 | 4.12 ± 0.07 | 34.68 ± 0.34 | 26.05 ± 0.25 | – | intensive response; also recorded: significant attraction; also recorded: significantly attracted | electrophysiological response on female antennae [3]: strong electrophysiological responses
CCCC(=O)CC [3-Hexanone] | 6.26 ± 0.03 | 7.74 ± 0.04 | 37.1 ± 0.06 | 27.87 ± 0.04 | – | – | –
CCCCC(=O)CCCC [5-Nonanone] | 6.72 ± 0.1 | 8.32 ± 0.14 | > 40 | – | – | – | –
COC(=O)c1ccccc1O [Methyl salicylate] | – | – | – | – | – | intensive response; also recorded: significant attraction; also recorded: significantly attracted | IC50 [1]: 11.9 ± 0.24 µM; Ki ([1]; SmosOBP12 Ki): 9.62 ± 0.33 µM; electrophysiological response on female antennae [3]: strong electrophysiological responses; IC50 [2]: 26.8 ± 0.27 µM
C/C1=C\CC/C(C)=C/CC(C)(C)/C=C/C1 [α-Humulene] | > 11.3 | > 14 | > 40 | > 30 | did not show any affinity | – | binding to SmosOBP12 (in words) [1]: did not show any affinity
CC1=CCC2CC1C2(C)C (stereo not drawn) [α-Pinene] | – | – | – | – | did not bind | – | IC50 [1]: 7.63 ± 0.06 µM; Ki ([1]; SmosOBP12 Ki): 6.17 ± 0.04 µM; IC50 [2]: > 40 µM
C=C1CC/C=C(\C)CC[C@@H]2[C@@H]1CC2(C)C [β-Caryophyllene] | – | – | – | – | did not show any affinity | – | IC50 [1]: > 14 µM; Ki ([1]; SmosOBP12 Ki): > 11.3 µM; binding to SmosOBP12 (in words) [1]: did not show any affinity; IC50 [2]: > 40 µM

The next lines start with results.

Ki ([1]; read-out: SmosOBP12 Ki) [µM] | IC50 [1, 8] [µM] | IC50 [2, 9] [µM] | Ki [2] [µM] | binding to SmosOBP17 (in words) [2] | Structure (SMILES) | behavioral response of S. mosellana female adults [4] | further results
7.18 ± 0.01 | 8.88 ± 0.02 | > 40 | – | – | CC/C=C\CCOC(C)=O [(Z)-3-Hexenyl acetate] | intensive response; also recorded: significant attraction; also recorded: significantly attracted | electrophysiological response on female antennae [3]: strong electrophysiological responses
4.07 ± 0.05 | 5.04 ± 0.08 | 38.01 ± 0.2 | 28.55 ± 0.15 | – | CC(C)(CO)[C@@H](O)C(=O)NCCCO [D-Panthenol] | intensive response; also recorded: significant attraction; also recorded: significantly attracted | electrophysiological response on female antennae [3]: strong electrophysiological responses
8.06 ± 0.37 | 9.94 ± 0.44 | > 40 | > 30 | did not bind | CCCCCCCCCCCC=O [Dodecanal] | – | binding to SmosOBP12 (in words) [1]: bound
> 11.3 | > 14 | > 40 | > 30 | – | CCCCCCCCCCCC [Dodecane] | – | –
7.29 ± 0.09 | 9 ± 0.11 | 38.28 ± 0.12 | 28.76 ± 0.09 | – | CCCCCCC(=O)OCC [Ethyl heptanoate] | intensive response; also recorded: significant attraction; also recorded: significantly attracted | electrophysiological response on female antennae [3]: strong electrophysiological responses
3.34 ± 0.02 | 4.11 ± 0.02 | 28.79 ± 0.09 | 21.63 ± 0.06 | – | CCCCCCCOC(C)=O [Heptyl acetate] | intensive response; also recorded: significant attraction; also recorded: significantly attracted | electrophysiological response on female antennae [3]: strong electrophysiological responses
10.42 ± 0.08 | 12.88 ± 0.09 | 33.96 ± 0.03 | 25.51 ± 0.02 | – | CCCCCCOC(C)=O [Hexyl acetate] | intensive response; also recorded: significant attraction; also recorded: significantly attracted | electrophysiological response on female antennae [3]: strong electrophysiological responses
5.9 ± 0.12 | 7.28 ± 0.16 | – | – | – | CCCCCCOC(=O)CC [Hexyl propionate] | – | –
> 11.3 | > 14 | > 40 | > 30 | did not show any affinity | CC(=O)OCCCCCC(C)C [Isooctyl acetate] | – | binding to SmosOBP12 (in words) [1]: did not show any affinity
8.24 ± 0.03 | 10.17 ± 0.04 | > 40 | > 30 | insensitive; also recorded: did not bind | C=CC(C)=CCC=C(C)C [Ocimene] | repelled; also recorded: intensive response; also recorded: significant repulsion; also recorded: strong repelling effect | binding to SmosOBP11 (in words) [5]: did not bind; Ki ([1]; listed as ocimene, read-out: SmosOBP12 Ki): 8.2 µM; binding to SmosOBP16 (in words) [6]: did not bind; binding to SmosOBP21 (in words) [7]: did not bind
> 11.3 | > 14 | > 40 | > 30 | – | CCCCCCCCCCCCCCC [Pentadecane] | – | –
4.24 ± 0.03 | 5.23 ± 0.01 | > 40 | – | – | CCCCCOC(=O)CCCC [Pentyl pentanoate] | – | –
> 11.3 | > 14 | > 40 | > 30 | – | CCCCCCCCCCCCC [Tridecane] | – | –
4.39 ± 0.02 | 5.43 ± 0.03 | > 40 | – | – | CCCCCCCCCCCO [Undecanol] | – | –
> 11.3 | > 14 | > 40 | > 30 | did not show any affinity | CC1=CC[C@@]23CC1C(C)(C)[C@@H]2CC[C@H]3C [α-Cedrene] | – | binding to SmosOBP12 (in words) [1]: did not show any affinity
